Test results: publication PMC8118430, “Utility of novel 2-furanones in synthesis of other heterocyclic compounds having anti-inflammatory activity with dual COX2/LOX inhibition” (Journal of Enzyme Inhibition and Medicinal Chemistry, 2021)

What was measured:
[1] = molecular target: T1, COX-1 (Ovis aries, UniProt P05979); assay: Cyclooxygenase COX-1 inhibition assay (Cayman COX inhibitor screening kit, EIA)
T1 sequence (P05979 25-600): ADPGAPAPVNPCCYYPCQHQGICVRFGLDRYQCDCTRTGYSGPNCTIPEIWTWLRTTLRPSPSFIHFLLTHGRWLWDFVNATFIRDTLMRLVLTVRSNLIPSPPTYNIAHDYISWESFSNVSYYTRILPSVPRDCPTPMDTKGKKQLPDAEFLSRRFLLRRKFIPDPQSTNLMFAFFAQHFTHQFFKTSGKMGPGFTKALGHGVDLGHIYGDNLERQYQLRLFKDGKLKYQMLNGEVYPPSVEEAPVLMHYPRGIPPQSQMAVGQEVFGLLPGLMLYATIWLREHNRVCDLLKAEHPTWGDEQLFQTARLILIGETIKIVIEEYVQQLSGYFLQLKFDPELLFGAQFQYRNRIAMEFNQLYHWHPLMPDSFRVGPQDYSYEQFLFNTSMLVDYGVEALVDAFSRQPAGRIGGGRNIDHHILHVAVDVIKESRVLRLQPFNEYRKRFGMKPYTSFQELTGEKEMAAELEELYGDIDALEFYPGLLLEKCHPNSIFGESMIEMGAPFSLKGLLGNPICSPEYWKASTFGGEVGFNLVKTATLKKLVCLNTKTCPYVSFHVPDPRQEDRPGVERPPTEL
Protocol: (§1) Tested compounds were dissolved in DMSO. […] The COX inhibitor screening assay depends on direct measurement of the amount of PG2α produced in the COX reaction. […] Enzyme catalysis was terminated by addition of 50 µl 1 M HCl and 100 µl of the saturated stannous chloride solution. The PGs are quantified by enzyme immunoassay (EIA) at 410 nm.
(§2) Thus, the newly synthesised compounds were tested for their anti-inflammatory activity against isozymes COX-1 and COX-2, which were determined by the COX-catalysed transformation of AA into PGH2 that was reduced to PGF2α and detected by the EIA[53], as shown in Table 1.

[2] = molecular target: T2, COX-2 (Homo sapiens, UniProt P35354); assay: Cyclooxygenase COX-2 inhibition assay (Cayman COX inhibitor screening kit, EIA); conditions: for Selectivity indexes (SI): SI = IC50 COX-1/COX-2 ratios; for COX-2 inhibition, in words (SAR discussion): qualitative statement
T2 sequence (P35354 18-604): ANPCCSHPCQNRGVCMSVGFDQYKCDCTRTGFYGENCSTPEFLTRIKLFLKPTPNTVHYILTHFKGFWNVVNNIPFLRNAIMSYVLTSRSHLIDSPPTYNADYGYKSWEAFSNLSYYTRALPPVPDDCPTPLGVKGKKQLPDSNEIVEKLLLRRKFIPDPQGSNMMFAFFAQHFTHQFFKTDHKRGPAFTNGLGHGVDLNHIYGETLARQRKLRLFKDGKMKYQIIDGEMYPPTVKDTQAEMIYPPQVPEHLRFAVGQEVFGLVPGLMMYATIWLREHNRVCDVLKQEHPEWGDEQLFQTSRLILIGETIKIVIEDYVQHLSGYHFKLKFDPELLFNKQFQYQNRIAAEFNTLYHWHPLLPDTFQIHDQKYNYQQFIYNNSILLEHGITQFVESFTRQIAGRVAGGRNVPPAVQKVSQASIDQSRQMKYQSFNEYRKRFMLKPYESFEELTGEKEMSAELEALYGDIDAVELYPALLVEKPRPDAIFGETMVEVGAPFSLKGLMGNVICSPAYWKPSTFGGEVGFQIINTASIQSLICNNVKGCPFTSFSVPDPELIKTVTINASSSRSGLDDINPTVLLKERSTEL
Protocol: as §1, §2

[3] = molecular target: T3, 15-LOX (Glycine max, UniProt P08170); assay: Lipoxygenase (15-LOX) inhibition assay (Cayman LOX inhibitor screening kit); assay type: biochemical, soybean; conditions: mean ± SD of three experiments
T3 construct: purchased Cayman Chemical 760700
T3 sequence (P08170 1-839): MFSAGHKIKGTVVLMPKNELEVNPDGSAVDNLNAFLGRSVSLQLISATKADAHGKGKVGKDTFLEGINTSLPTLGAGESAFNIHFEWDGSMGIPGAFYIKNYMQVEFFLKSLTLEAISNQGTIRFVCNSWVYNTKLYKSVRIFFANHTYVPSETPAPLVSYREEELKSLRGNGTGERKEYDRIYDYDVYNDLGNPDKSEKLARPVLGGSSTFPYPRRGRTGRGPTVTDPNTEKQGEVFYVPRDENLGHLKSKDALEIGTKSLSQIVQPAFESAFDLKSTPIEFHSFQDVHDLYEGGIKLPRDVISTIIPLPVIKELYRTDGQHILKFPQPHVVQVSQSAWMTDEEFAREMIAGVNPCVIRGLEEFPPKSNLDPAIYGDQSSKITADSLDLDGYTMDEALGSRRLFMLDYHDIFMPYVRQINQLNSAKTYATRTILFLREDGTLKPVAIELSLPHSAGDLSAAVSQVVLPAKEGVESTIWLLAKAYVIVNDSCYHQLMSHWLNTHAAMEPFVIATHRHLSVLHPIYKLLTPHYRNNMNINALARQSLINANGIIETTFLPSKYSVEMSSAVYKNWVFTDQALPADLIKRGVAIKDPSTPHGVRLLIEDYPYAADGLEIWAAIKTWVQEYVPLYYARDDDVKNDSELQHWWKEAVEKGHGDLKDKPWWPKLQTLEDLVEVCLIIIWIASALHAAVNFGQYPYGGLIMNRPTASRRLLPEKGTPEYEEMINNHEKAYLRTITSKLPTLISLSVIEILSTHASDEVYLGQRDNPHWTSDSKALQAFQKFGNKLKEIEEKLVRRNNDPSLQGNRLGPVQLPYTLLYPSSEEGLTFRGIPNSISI
Protocol: Briefly, in a 96-well plate, 10 µl of each test compound (dissolved in DMSO) or vehicle were pre-incubated with 90 µl of 15-LOX enzyme. The reaction was started by addition of 10 µl of substrate (AA) and the plate was shaken for at least 5 min. Then, 100 µl of chromogen supplied with the kit was added to each well to stop the enzymatic reaction and develop the colour. The absorbance was measured at 490 nm using microplate reader.
Therefore, the soybean LOX is most like the mammalian 15-LOX[59].

[4] = molecular target: T4, TNF-α (Homo sapiens, UniProt P01375); assay: TNFR2: TNF-α [biotinylated] inhibitor screening assay; assay type: binding; conditions: for IC50: mean ± SD of three experiments
T4 construct: purchased BPS Bioscience 79756
T4 sequence (P01375 77-233 limits assumed): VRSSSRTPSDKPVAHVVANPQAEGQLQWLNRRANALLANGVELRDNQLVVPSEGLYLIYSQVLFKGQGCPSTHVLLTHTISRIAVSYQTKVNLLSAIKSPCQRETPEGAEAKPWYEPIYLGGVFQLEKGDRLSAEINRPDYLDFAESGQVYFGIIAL
Protocol: The assay was performed in triplicates using TNFR2: TNF-α [biotinylated] […] First, TNFR2 is coated on a 96-well plate. Next, biotinylated TNF-α is incubated with TNFR2 on the plate. Finally, the plate was treated with streptavidin-HRP followed by addition of an HRP substrate to produce chemiluminescence, which can be measured using a chemiluminescence reader.

## NNC(=O)C(=Cc1ccccc1[N+](=O)[O-])CC(=O)c1ccc(Cl)c(Cl)c1 [Compound 6a, 4-(3,4-Dichlorophenyl)-2-(2-nitrobenzylidene)-4-oxo-butanehydrazide]
[1]
  IC50: 9670 ± 60 nM
[2]
  IC50: 90 nM
  Selectivity indexes (SI): 107.44
  COX-2 inhibition, in words (SAR discussion): high activity
[3]
  IC50: 2830 ± 60 nM
other
  melting point: 164 to 166 °C
[4]
  IC50: 5.87 ± 0.12 nM

## NNC(=O)C(=Cc1cccc([N+](=O)[O-])c1)CC(=O)c1ccc(Cl)c(Cl)c1 [Compound 6b, 4-(3,4-Dichlorophenyl)-2-(3-nitrobenzylidene)-4-oxo-butanehydrazide]
[1]
  IC50: 10100 ± 150 nM
[2]
  IC50: 80 nM
  Selectivity indexes (SI): 125.88
  COX-2 inhibition, in words (SAR discussion): high activity
[3]
  IC50: 2470 ± 60 nM
other
  melting point: 160 to 162 °C
[4]
  IC50: 4.1 ± 0.1 nM

## CN(C)c1ccc(C=C(CC(=O)c2ccc(Cl)c(Cl)c2)C(=O)NN)cc1 [Compound 6c, 4-(3,4-Dichlorophenyl)-2-(4-dimethylaminobenzylidene)-4-oxo-butanehydrazide]
[1]
  IC50: 8830 ± 60 nM
[2]
  IC50: 100 ± 10 nM
  Selectivity indexes (SI): 88.30
[3]
  IC50: 3170 ± 60 nM
other
  melting point: 154 to 156 °C
[4]
  IC50: 6.17 ± 0.06 nM

## O=C1NN(C(=O)c2ccccc2)C(c2ccc(Cl)c(Cl)c2)=CC1=Cc1ccccc1[N+](=O)[O-] [Compound 8a, 2-Benzoyl-5-(2-nitrobenzylidene)-3-(3,4-dichlorophenyl)-1H-pyridazin-6-one]
[1]
  IC50: 10800 ± 150 nM
[2]
  IC50: 70 nM
  Selectivity indexes (SI): 153.86
[3]
  IC50: 2330 ± 510 nM
other
  melting point: 222 to 224 °C
[4]
  IC50: 3.83 ± 1.44 nM

## O=C1NN(C(=O)c2ccccc2)C(c2ccc(Cl)c(Cl)c2)=CC1=Cc1cccc([N+](=O)[O-])c1 [Compound 8b, 2-Benzoyl-5-(3-nitrobenzylidene)-3-(3,4-dichlorophenyl)-1H-pyridazin-6-one]
[1]
  IC50: 12670 ± 120 nM
[2]
  IC50: 40 nM
  Selectivity indexes (SI): 316.75
[3]
  IC50: 2470 ± 60 nM
other
  melting point: 150 to 152 °C
[4]
  IC50: 3.47 ± 0.06 nM

## CN(C)c1ccc(C=C2C=C(c3ccc(Cl)c(Cl)c3)N(C(=O)c3ccccc3)NC2=O)cc1 [Compound 8c, 2-Benzoyl-5-(4-dimethylaminobenzylidene)-3-(3,4-dichlorophenyl)-1H-pyridazin-6-one]
[1]
  IC50: 13070 ± 120 nM
[2]
  IC50: 40 nM
  Selectivity indexes (SI): 326.75
[3]
  IC50: 3170 ± 60 nM
other
  melting point: 229 to 231 °C
[4]
  IC50: 2.9 ± 0.1 nM
[4]; qualitative statement
  TNF-α inhibition, in words (discussion): lowest IC50 value

## O=C(CC(=Cc1ccccc1[N+](=O)[O-])c1n[nH]c(=S)o1)c1ccc(Cl)c(Cl)c1 [Compound 9a, 1-(3,4-Dichlorophenyl)-4-(2-nitrophenyl)-3-(2-thioxo-4,5-dihydro-1,3,4-oxadiazol-5-yl)but-3-en-1-one]
[1]
  IC50: 9430 ± 120 nM
[2]
  IC50: 280 ± 10 nM
  Selectivity indexes (SI): 33.68
[3]
  IC50: 2070 ± 150 nM
other
  melting point: 214 to 216 °C
[4]
  IC50: 5.57 ± 0.06 nM

## CN(C)c1ccc(C=C(CC(=O)c2ccc(Cl)c(Cl)c2)c2n[nH]c(=S)o2)cc1 [Compound 9c, 1-(3,4-Dichlorophenyl)-4-(4-dimethylaminophenyl)-3-(2-thioxo-4,5-dihydro-1,3,4-oxadiazol-5-yl)but-3-en-1-one]
[1]
  IC50: 8930 ± 60 nM
[2]
  IC50: 220 ± 10 nM
  Selectivity indexes (SI): 40.59
[3]
  IC50: 2000 ± 170 nM
other
  melting point: 162 to 164 °C
[4]
  IC50: 6.27 ± 0.15 nM
